{
  "source": "patent US10329283B2",
  "about": "“G protein-coupled receptor kinase inhibitors and methods for use of the same” (THE REGENTS OF THE UNIVERSITY OF MICHIGAN, priority 2015, dated 2019)",
  "type_in_all_cases": "biochemical",
  "conditions_in_all_cases": "50 nM GRK, 5 μM ATP, 500 nM bROS or tubulin, 5 min",
  "key": {"GRK2": {"biological_target": "T1, GRK2 (Homo sapiens, UniProt P25098)", "T1 sequence (P25098 1-689)": "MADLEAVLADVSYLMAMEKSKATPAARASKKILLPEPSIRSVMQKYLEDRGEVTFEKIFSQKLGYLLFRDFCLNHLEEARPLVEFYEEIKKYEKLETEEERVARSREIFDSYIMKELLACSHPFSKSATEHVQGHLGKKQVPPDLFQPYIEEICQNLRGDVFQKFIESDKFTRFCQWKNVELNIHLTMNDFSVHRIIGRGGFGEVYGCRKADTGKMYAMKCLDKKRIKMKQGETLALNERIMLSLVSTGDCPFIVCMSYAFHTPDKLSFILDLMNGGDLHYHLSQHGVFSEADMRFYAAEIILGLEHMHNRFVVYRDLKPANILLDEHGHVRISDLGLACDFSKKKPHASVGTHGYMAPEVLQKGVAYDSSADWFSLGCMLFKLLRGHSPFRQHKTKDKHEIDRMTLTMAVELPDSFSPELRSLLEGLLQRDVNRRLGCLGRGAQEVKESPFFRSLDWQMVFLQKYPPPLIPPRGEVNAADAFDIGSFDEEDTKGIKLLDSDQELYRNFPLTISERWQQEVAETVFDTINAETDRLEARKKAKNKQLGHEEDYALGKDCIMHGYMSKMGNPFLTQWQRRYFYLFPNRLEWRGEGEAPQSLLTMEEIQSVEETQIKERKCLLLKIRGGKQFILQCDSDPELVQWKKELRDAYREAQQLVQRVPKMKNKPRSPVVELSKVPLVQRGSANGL", "assay": "GRK2 kinetic assay for inhibition of GRKs (phosphorimaging)", "method": "(§1) The low salt concentration and DDM were used to maximize GRK activity and disrupt small molecule aggregates from forming, respectively. […] Data was analyzed and inhibition curves were fit via GraphPad Prism."}, "GRK1": {"biological_target": "T2, GRK1 (Bos taurus, UniProt P28327)", "T2 sequence (P28327 1-535 limits assumed)": "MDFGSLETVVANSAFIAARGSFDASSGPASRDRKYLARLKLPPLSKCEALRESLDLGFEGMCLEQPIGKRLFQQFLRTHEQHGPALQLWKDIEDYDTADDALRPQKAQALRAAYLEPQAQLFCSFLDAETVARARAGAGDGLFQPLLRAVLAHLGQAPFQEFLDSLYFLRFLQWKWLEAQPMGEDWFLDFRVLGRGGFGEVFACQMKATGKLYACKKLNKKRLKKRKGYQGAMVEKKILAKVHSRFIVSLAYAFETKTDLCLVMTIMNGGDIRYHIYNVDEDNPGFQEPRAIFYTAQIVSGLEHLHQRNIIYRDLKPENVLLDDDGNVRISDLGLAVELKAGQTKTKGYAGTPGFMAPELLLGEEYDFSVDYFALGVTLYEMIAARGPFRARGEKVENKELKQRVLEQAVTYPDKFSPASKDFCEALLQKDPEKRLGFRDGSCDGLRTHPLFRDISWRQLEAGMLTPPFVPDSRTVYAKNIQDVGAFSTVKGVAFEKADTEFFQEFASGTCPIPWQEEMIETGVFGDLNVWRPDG", "assay": "GRK1 kinetic assay for inhibition of GRKs (phosphorimaging)", "method": "as §1"}, "GRK5": {"biological_target": "GRK5 (Homo sapiens, UniProt P34947)", "sequence (P34947 whole entry, species assumed)": "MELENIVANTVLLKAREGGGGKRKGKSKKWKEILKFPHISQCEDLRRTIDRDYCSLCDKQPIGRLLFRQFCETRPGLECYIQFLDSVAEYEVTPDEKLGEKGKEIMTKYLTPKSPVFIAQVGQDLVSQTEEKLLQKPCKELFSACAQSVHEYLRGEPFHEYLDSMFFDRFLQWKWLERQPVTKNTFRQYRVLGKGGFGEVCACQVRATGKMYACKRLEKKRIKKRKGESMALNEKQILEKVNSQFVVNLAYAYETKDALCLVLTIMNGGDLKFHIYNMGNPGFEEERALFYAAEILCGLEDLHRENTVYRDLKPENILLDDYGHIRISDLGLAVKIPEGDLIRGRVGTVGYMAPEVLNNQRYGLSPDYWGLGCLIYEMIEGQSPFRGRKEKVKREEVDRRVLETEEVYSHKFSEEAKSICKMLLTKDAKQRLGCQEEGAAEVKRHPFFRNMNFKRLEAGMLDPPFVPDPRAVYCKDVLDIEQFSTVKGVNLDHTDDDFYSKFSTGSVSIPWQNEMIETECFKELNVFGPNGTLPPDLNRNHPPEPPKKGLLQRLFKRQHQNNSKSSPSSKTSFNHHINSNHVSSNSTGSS", "assay": "GRK5 kinetic assay for inhibition of GRKs (phosphorimaging)", "method": "as §1"}},
  "note": "Counter-ions that a name gives are not always drawn.",
  "data": [
    {"smiles": "O=C(Cc1cc([C@@H]2CCNC[C@H]2COc2ccc3c(c2)OCO3)ccc1F)NCc1c(F)cccc1F", "note": "[Example E01, 2-(5-((3S,4R)-3-((benzo[d][1,3]dioxol-5-yloxy)methyl)piperidin-4-yl)-2-fluorophenyl)-N-(2,6-difluorobenzyl)acetamide hydrochloride]", "values": [
      {"measurement": "IC50", "setting": "GRK2", "value": 2.53, "unit": "µM"},
      {"measurement": "IC50", "setting": "GRK1", "value": "> 100", "unit": "µM"},
      {"measurement": "IC50", "setting": "GRK5", "value": "> 100", "unit": "µM"}
    ]},
    {"smiles": "O=C(Cc1cc([C@@H]2CCNC[C@H]2COc2ccc3c(c2)OCO3)ccc1F)NCCc1c(F)cccc1F", "note": "[Example E02, 2-(5-((3S,4R)-3-((benzo[d][1,3]dioxol-5-yloxy)methyl)piperidin-4-yl)-2-fluorophenyl)-N-(2,6-difluorophenethyl)acetamide hydrochloride]", "values": [
      {"measurement": "IC50", "setting": "GRK2", "value": 0.42, "unit": "µM"},
      {"measurement": "IC50", "setting": "GRK1", "value": 95.3, "unit": "µM"},
      {"measurement": "IC50", "setting": "GRK5", "value": "> 100", "unit": "µM"}
    ]},
    {"smiles": "O=C(Cc1cc([C@@H]2CCNC[C@H]2COc2ccc3c(c2)OCO3)ccc1F)NCCc1ccccn1", "note": "[Example E03, 2-(5-((3S,4R)-3-((benzo[d][1,3]dioxol-5-yloxy)methyl)piperidin-4-yl)-2-fluorophenyl)-N-(2-(pyridin-2-yl)ethyl)acetamide hydrochloride]", "values": [
      {"measurement": "IC50", "setting": "GRK2", "value": 3.65, "unit": "µM"},
      {"measurement": "IC50", "setting": "GRK5", "value": "> 100", "unit": "µM"}
    ]},
    {"smiles": "O=C(Cc1cc([C@@H]2CCNC[C@H]2COc2ccc3c(c2)OCO3)ccc1F)NCCc1cn[nH]c1", "note": "[Example E04, N-(2-(1H-pyrazol-4-yl)ethyl)-2-(5-((3S,4R)-3-((benzo[d][1,3]dioxol-5-yloxy)methyl)piperidin-4-yl)-2-fluorophenyl)acetamide hydrochloride]", "values": [
      {"measurement": "IC50", "setting": "GRK2", "value": 0.62, "unit": "µM"},
      {"measurement": "IC50", "setting": "GRK5", "value": "> 100", "unit": "µM"}
    ]},
    {"smiles": "O=C(Cc1cc([C@@H]2CCNC[C@H]2COc2ccc3c(c2)OCO3)ccc1F)NCc1ccccn1", "note": "[Example E05, 2-(5-((3S,4R)-3-((benzo[d][1,3]dioxol-5-yloxy)methyl)piperidin-4-yl)-2-fluorophenyl)-N-(pyridin-2-ylmethyl)acetamide hydrochloride]", "values": [
      {"measurement": "IC50", "setting": "GRK2", "value": 3.61, "unit": "µM"},
      {"measurement": "IC50", "setting": "GRK1", "value": 59.2, "unit": "µM"},
      {"measurement": "IC50", "setting": "GRK5", "value": "> 100", "unit": "µM"}
    ]},
    {"smiles": "COc1ccccc1CNC(=O)Cc1cc([C@@H]2CCNC[C@H]2COc2ccc3c(c2)OCO3)ccc1F", "note": "[Example E06, 2-(5-((3S,4R)-3-((benzo[d][1,3]dioxol-5-yloxy)methyl)piperidin-4-yl)-2-fluorophenyl)-N-(2-methoxybenzyl)acetamide hydrochloride]", "values": [
      {"measurement": "IC50", "setting": "GRK2", "value": 0.64, "unit": "µM"},
      {"measurement": "IC50", "setting": "GRK5", "value": "> 100", "unit": "µM"}
    ]},
    {"smiles": "O=C(NCc1ccccn1)c1cc([C@@H]2CCNC[C@H]2COc2ccc3c(c2)OCO3)ccc1F", "note": "[Example E07, 5-((3S,4R)-3-((benzo[d][1,3]dioxol-5-yloxy)methyl)piperidin-4-yl)-2-fluoro-N-(pyridin-2-ylmethyl)benzamide hydrochloride]", "values": [
      {"measurement": "IC50", "setting": "GRK2", "value": 0.44, "unit": "µM"},
      {"measurement": "IC50", "setting": "GRK5", "value": 15.2, "unit": "µM"}
    ]},
    {"smiles": "O=C(NCCc1cn[nH]c1)c1cc([C@@H]2CCNC[C@H]2COc2ccc3c(c2)OCO3)ccc1F", "note": "[Example E08, N-(2-(1H-pyrazol-4-yl)ethyl)-5-((3S,4R)-3-((benzo[d][1,3]dioxol-5-yloxy)methyl)piperidin-4-yl)-2-fluorobenzamide hydrochloride]", "values": [
      {"measurement": "IC50", "setting": "GRK2", "value": 1.75, "unit": "µM"},
      {"measurement": "IC50", "setting": "GRK5", "value": "> 100", "unit": "µM"}
    ]},
    {"smiles": "COc1ccccc1CNC(=O)c1cc([C@@H]2CCNC[C@H]2COc2ccc3c(c2)OCO3)ccc1F", "note": "[Example E09, 5-((3S,4R)-3-((benzo[d][1,3]dioxol-5-yloxy)methyl)piperidin-4-yl)-2-fluoro-N-(2-methoxybenzyl)benzamide hydrochloride]", "values": [
      {"measurement": "IC50", "setting": "GRK2", "value": 48.5, "unit": "µM"},
      {"measurement": "IC50", "setting": "GRK5", "value": "> 100", "unit": "µM"}
    ]},
    {"smiles": "O=C(NCc1ccccc1C(F)(F)F)c1cc([C@@H]2CCNC[C@H]2COc2ccc3c(c2)OCO3)ccc1F", "note": "[Example E10, 5-((3S,4R)-3-((benzo[d][1,3]dioxol-5-yloxy)methyl)piperidin-4-yl)-2-fluoro-N-(2-(trifluoromethyl)benzyl)benzamide hydrochloride]", "values": [
      {"measurement": "IC50", "setting": "GRK2", "value": 12.5, "unit": "µM"},
      {"measurement": "IC50", "setting": "GRK5", "value": 61.9, "unit": "µM"}
    ]},
    {"smiles": "O=C(NCc1c(F)cccc1F)c1cc([C@@H]2CCNC[C@H]2COc2ccc3c(c2)OCO3)ccc1F", "note": "[Example E11, 5-((3S,4R)-3-((benzo[d][1,3]dioxol-5-yloxy)methyl)piperidin-4-yl)-N-(2,6-difluorobenzyl)-2-fluorobenzamide hydrochloride]", "values": [
      {"measurement": "IC50", "setting": "GRK5", "value": 45.5, "unit": "µM"}
    ]},
    {"smiles": "Cc1cccc(C)c1CNC(=O)c1cc([C@@H]2CCNC[C@H]2COc2ccc3c(c2)OCO3)ccc1F", "note": "[Example E13, 5-((3S,4R)-3-((benzo[d][1,3]dioxol-5-yloxy)methyl)piperidin-4-yl)-N-(2,6-dimethylbenzyl)-2-fluorobenzamide hydrochloride]", "values": [
      {"measurement": "IC50", "setting": "GRK2", "value": 1.01, "unit": "µM"},
      {"measurement": "IC50", "setting": "GRK1", "value": 11.3, "unit": "µM"},
      {"measurement": "IC50", "setting": "GRK5", "value": 56.4, "unit": "µM"}
    ]},
    {"smiles": "O=C(NCc1ccccc1)c1cc([C@@H]2CCNC[C@H]2COc2ccc3c(c2)OCO3)ccc1F", "note": "[Example E19, 5-((3S,4R)-3-((benzo[d][1,3]dioxol-5-yloxy)methyl)piperidin-4-yl)-N-benzyl-2-fluorobenzamide]", "values": [
      {"measurement": "IC50", "setting": "GRK5", "value": 84.3, "unit": "µM"}
    ]},
    {"smiles": "O=C(NCCc1ccccc1)c1cc([C@@H]2CCNC[C@H]2COc2ccc3c(c2)OCO3)ccc1F", "note": "[Example E20, 5-((3S,4R)-3-((benzo[d][1,3]dioxol-5-yloxy)methyl)piperidin-4-yl)-2-fluoro-N-phenethylbenzamide]", "values": [
      {"measurement": "IC50", "setting": "GRK5", "value": "> 100", "unit": "µM"}
    ]},
    {"smiles": "O=C(NCc1cccnc1)c1cc([C@@H]2CCNC[C@H]2COc2ccc3c(c2)OCO3)ccc1F", "note": "[Example E21, 5-((3S,4R)-3-((benzo[d][1,3]dioxol-5-yloxy)methyl)piperidin-4-yl)-2-fluoro-N-(pyridin-3-ylmethyl)benzamide]", "values": [
      {"measurement": "IC50", "setting": "GRK5", "value": 76.3, "unit": "µM"}
    ]},
    {"smiles": "O=C(NCc1ccncc1)c1cc([C@@H]2CCNC[C@H]2COc2ccc3c(c2)OCO3)ccc1F", "note": "[Example E22, 5-((3S,4R)-3-((benzo[d][1,3]dioxol-5-yloxy)methyl)piperidin-4-yl)-2-fluoro-N-(pyridin-4-ylmethyl)benzamide]", "values": [
      {"measurement": "IC50", "setting": "GRK5", "value": "> 100", "unit": "µM"}
    ]},
    {"smiles": "O=C(NCCc1ccccn1)c1cc([C@@H]2CCNC[C@H]2COc2ccc3c(c2)OCO3)ccc1F", "note": "[Example E23, 5-((3S,4R)-3-((benzo[d][1,3]dioxol-5-yloxy)methyl)piperidin-4-yl)-2-fluoro-N-(2-(pyridin-2-yl)ethyl)benzamide]", "values": [
      {"measurement": "IC50", "setting": "GRK5", "value": "> 100", "unit": "µM"}
    ]},
    {"smiles": "O=C(NCCc1ccncc1)c1cc([C@@H]2CCNC[C@H]2COc2ccc3c(c2)OCO3)ccc1F", "note": "[Example E24, 5-((3S,4R)-3-((benzo[d][1,3]dioxol-5-yloxy)methyl)piperidin-4-yl)-2-fluoro-N-(2-(pyridin-4-yl)ethyl)benzamide]", "values": [
      {"measurement": "IC50", "setting": "GRK5", "value": "> 100", "unit": "µM"}
    ]},
    {"smiles": "O=C(NCCc1cccnc1)c1cc([C@@H]2CCNC[C@H]2COc2ccc3c(c2)OCO3)ccc1F", "note": "[Example E25, 5-((3S,4R)-3-((benzo[d][1,3]dioxol-5-yloxy)methyl)piperidin-4-yl)-2-fluoro-N-(2-(pyridin-3-yl)ethyl)benzamide]", "values": [
      {"measurement": "IC50", "setting": "GRK5", "value": "> 100", "unit": "µM"}
    ]},
    {"smiles": "O=C(NCc1ncc[nH]1)c1cc([C@@H]2CCNC[C@H]2COc2ccc3c(c2)OCO3)ccc1F", "note": "[Example E27, N-((1H-imidazol-2-yl)methyl)-5-((3S,4R)-3-((benzo[d][1,3]dioxol-5-yloxy)methyl)piperidin-4-yl)-2-fluorobenzamide]", "values": [
      {"measurement": "IC50", "setting": "GRK5", "value": 14.8, "unit": "µM"}
    ]},
    {"smiles": "O=C(NCCc1c[nH]cn1)c1cc([C@@H]2CCNC[C@H]2COc2ccc3c(c2)OCO3)ccc1F", "note": "[Example E28, N-(2-(1H-imidazol-4-yl)ethyl)-5-((3S,4R)-3-((benzo[d][1,3]dioxol-5-yloxy)methyl)piperidin-4-yl)-2-fluorobenzamide]", "values": [
      {"measurement": "IC50", "setting": "GRK5", "value": "> 100", "unit": "µM"}
    ]}
  ]
}
